From patent US20250313548A1 (Actio Biosciences, Inc., priority 2023, published 2025) come the findings set out here.

By IC50 is commonly meant the concentration needed to halve the response being measured. A high value points to weaker potency in that assay.

Some results are limits rather than exact numbers.

Sequence of human, KCNT1 (Q5JUK3 whole entry): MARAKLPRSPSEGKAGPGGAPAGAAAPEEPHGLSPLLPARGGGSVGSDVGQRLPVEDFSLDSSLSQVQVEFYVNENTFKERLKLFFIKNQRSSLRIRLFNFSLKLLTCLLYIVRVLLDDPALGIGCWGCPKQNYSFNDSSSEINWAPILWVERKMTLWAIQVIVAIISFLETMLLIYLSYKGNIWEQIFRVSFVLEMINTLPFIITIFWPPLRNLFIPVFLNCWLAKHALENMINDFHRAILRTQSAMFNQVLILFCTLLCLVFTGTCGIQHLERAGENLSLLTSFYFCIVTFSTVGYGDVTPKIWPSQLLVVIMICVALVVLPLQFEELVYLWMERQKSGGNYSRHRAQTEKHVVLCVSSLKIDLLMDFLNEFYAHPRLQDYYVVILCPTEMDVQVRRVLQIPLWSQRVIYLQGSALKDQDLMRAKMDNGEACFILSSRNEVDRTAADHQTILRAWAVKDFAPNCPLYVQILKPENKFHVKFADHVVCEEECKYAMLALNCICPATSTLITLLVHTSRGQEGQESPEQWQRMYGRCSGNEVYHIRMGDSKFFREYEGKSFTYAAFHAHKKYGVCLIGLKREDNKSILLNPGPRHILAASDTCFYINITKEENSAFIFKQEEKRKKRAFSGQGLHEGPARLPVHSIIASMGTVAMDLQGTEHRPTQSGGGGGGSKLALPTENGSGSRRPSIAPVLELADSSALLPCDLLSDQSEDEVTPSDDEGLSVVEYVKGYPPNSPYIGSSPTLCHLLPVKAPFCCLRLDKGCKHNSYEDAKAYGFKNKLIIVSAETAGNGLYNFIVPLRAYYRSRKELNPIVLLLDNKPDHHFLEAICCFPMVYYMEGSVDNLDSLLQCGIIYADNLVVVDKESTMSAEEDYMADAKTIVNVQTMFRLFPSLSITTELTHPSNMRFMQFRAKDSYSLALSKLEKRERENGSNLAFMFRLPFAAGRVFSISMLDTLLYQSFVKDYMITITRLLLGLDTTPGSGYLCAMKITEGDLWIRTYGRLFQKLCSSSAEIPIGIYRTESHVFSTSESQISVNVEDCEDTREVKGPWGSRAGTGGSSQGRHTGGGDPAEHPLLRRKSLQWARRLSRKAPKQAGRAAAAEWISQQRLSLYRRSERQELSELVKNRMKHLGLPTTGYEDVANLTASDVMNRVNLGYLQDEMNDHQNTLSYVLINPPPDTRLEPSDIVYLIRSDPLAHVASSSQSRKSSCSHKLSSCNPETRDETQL

The assay concerns the target human, KCNT1 (Homo sapiens (Human), UniProt Q5JUK3). In words: FLIPR Tl/K Flux Assay. Format: cell-based. The note with it: HEK293 cells stably expressing human KCNT1; Tl+ flux stimulated with EC80 of agonist Loxapine. The gist of the method: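 Inhibition values come from a Hill-equation fit of % inhibition versus log concentration, using normalized fluorescence (Fmax/Fmin) over a 160 s read. The read followed stimulation with Tl+ plus EC80 agonist loxapine after 30 min compound pre-incubation at 25 °C. Cells were KCNT1-expressing HEK293, dye-loaded 1 h in pH 7.4 HEPES/HBSS with 5 mM probenecid.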
In the case of `Cn1nc(C(F)(F)F)cc1C(=O)N[C@H]1CCn2nc(-c3ccnc(OC(F)F)c3)cc21` [Compound I-233a, (S)-N-(2-(2-(Difluoromethoxy)pyridin-4-yl)-5,6-dihydro-4H-pyrrolo[1,2-b]pyrazol-4-yl)-1-methyl-3-(trifluoromethyl)-1H-pyrazole-5-carboxamide], the IC50 was < 250 nM. In the case of `O=C(N[C@H]1CCCc2nc(-c3ccnc(C(F)(F)F)c3)oc21)c1cncc(C(F)(F)F)n1` [Compound I-184a, (S)-6-(Trifluoromethyl)-N-(2-(2-(trifluoromethyl)pyridin-4-yl)-4,5,6,7-tetrahydrobenzo[d]oxazol-7-yl)pyrazine-2-carboxamide] it was < 250 nM; in that of `Cn1nc(C(F)(F)F)cc1C(=O)N[C@H]1CCc2nn(-c3ccnc(OC(F)F)c3)cc21` [Compound I-74a], < 250 nM.

As to `C#Cc1cc(-n2cc3c(n2)CC[C@H]3NC(=O)c2cc(C(F)(F)F)nn2C)ccn1` [Compound I-78b], the IC50 was > 1000 nM. The figure for `Cn1nc(C(F)(F)F)cc1C(=O)N[C@H]1CCCc2nn(-c3ccnc(C4CC4)c3)cc21` [Compound I-48a] is < 250 nM; for `Cc1cccc(C(=O)N[C@H]2CCCc3cnc(-c4ccnc(C(F)(F)F)c4)cc32)c1` [Compound I-394a] it is 250 to 500 nM.

As to `N#Cc1cc(F)cc(C(=O)N[C@H]2CCn3nc(-c4ccnc(C5CC5)c4)cc32)c1` [Compound I-300a, (S)-3-Cyano-N-(2-(2-cyclopropylpyridin-4-yl)-5,6-dihydro-4H-pyrrolo[1,2-b]pyrazol-4-yl)-5-fluorobenzamide], the IC50 is < 250 nM. The figure for `O=C(N[C@H]1CCCc2oc(-c3ccnc(C4CC4)c3)nc21)c1cncc(C(F)(F)F)c1` [Compound I-137a, (S)-N-(2-(2-Cyclopropylpyridin-4-yl)-4,5,6,7-tetrahydrobenzo[d]oxazol-4-yl)-5-(trifluoromethyl)nicotinamide] is < 250 nM; for `COc1cc(-c2nc3c(o2)[C@@H](NC(=O)c2cc(Cl)cc(Cl)c2)CCC3)c(F)cn1` [Compound I-174a, (S)-3,5-Dichloro-N-(2-(5-fluoro-2-methoxypyridin-4-yl)-4,5,6,7-tetrahydrobenzo[d]oxazol-7-yl)benzamide] it is < 250 nM. As for `O=C(N[C@H]1CCc2nn(-c3ccnc(C(F)(F)F)c3)cc21)c1cc(F)cc(C2CC2)c1` [Compound I-562a, (S)-3-Cyclopropyl-5-fluoro-N-(2-(2-(trifluoromethyl)pyridin-4-yl)-2,4,5,6-tetrahydrocyclopenta[c]pyrazol-4-yl)benzamide], the IC50 was < 250 nM. For the molecule `Cc1cc(C#N)cc(C(=O)NC2CCn3nc(-c4ccnc(C5CC5)c4)cc32)c1` (centres unmarked) [Compound I-306a, 3-Cyano-N-(2-(2-cyclopropylpyridin-4-yl)-5,6-dihydro-4H-pyrrolo[1,2-b]pyrazol-4-yl)-5-methylbenzamide], the IC50 is < 250 nM. In the case of `O=C(N[C@H]1CCCn2nc(-c3ccnc(C(F)(F)F)c3)cc21)c1cn(C(F)(F)F)nc1C(F)(F)F` [Compound I-338a, (S)-1,3-bis(trifluoromethyl)-N-(2-(2-(trifluoromethyl)pyridin-4-yl)-4,5,6,7-tetrahydropyrazolo[1,5-a]pyridin-4-yl)-1H-pyrazole-4-carboxamide] it was < 250 nM; in that of `Cc1nn(C(F)(F)F)cc1C(=O)N[C@H]1CCCn2nc(-c3ccnc(C(F)(F)F)c3)cc21` [Compound I-325a, (S)-3-Methyl-1-(trifluoromethyl)-N-(2-(2-(trifluoromethyl)pyridin-4-yl)-4,5,6,7-tetrahydropyrazolo[1,5-a]pyridin-4-yl)-1H-pyrazole-4-carboxamide], < 250 nM; in that of `COc1cc(-c2cc3n(n2)CCC[C@@H]3NC(=O)c2cc(C(F)(F)F)ccn2)ccn1` [Compound I-365a], 250 to 500 nM. The figure for `O=C(N[C@@H]1CCc2nn(-c3ccnc(C(F)(F)F)c3)cc21)c1cc(Cl)cc(Cl)c1` [Compound I-99b] is 500 to 1000 nM; for `Cc1ccccc1C(=O)NC1CCCc2nn(-c3ccnc(C(F)(F)F)c3)cc21` (racemic) [Compound I-29, (rac)-2-Methyl-N-(2-(2-(trifluoromethyl)pyridin-4-yl)-4,5,6,7-tetrahydro-2H-indazol-4-yl)benzamide] it is > 1000 nM; for `C#Cc1cc(-n2cc3c(n2)CC[C@@H]3NC(=O)c2cc(C(F)(F)F)nn2C)ccn1` [Compound I-78a] it is < 250 nM. The figure for `Cn1nc(C(F)(F)F)cc1C(=O)NC1CCCc2nn(-c3ccn(C)c(=O)c3)cc21` (racemic) [Compound I-40, (rac)-1-Methyl-N-(2-(1-methyl-2-oxo-1,2-dihydropyridin-4-yl)-4,5,6,7-tetrahydro-2H-indazol-4-yl)-3-(trifluoromethyl)-1H-pyrazole-5-carboxamide] is > 1000 nM; for `CC(C)Oc1cc(C(=O)N[C@H]2CCn3nc(-c4ccnc(C5CC5)c4)cc32)ccn1` [Compound I-542a, (S)-N-(2-(2-Cyclopropylpyridin-4-yl)-5,6-dihydro-4H-pyrrolo[1,2-b]pyrazol-4-yl)-2-isopropoxyisonicotinamide] it is < 250 nM. For the molecule `O=C(N[C@H]1CCCc2nn(-c3ccnc(C(F)(F)F)c3)cc21)c1cc(Cl)cc(C(F)(F)F)c1` [Compound I-2a, (S)-3-Chloro-5-(trifluoromethyl)-N-(2-(2-(trifluoromethyl)pyridin-4-yl)-4,5,6,7-tetrahydro-2H-indazol-4-yl)benzamide], the IC50 is < 250 nM.

For `Cn1nc(C(F)(F)F)cc1C(=O)N[C@H]1CCCc2cn(-c3ccnc(C(F)(F)F)c3)nc21` [Compound I-87a], the IC50 is 500 to 1000 nM. In the case of `COc1cc(-c2cc3n(n2)CCC[C@@H]3NC(=O)c2ccnc(C(F)(F)F)c2)ccn1` [Compound I-364a] it was < 250 nM; in that of `Cc1nc(C(F)(F)F)c(C(=O)N[C@H]2CCCn3nc(-c4ccnc(C(F)(F)F)c4)cc32)s1` [Compound I-406a], 250 to 500 nM; in that of `O=C(N[C@H]1CCCc2oc(-c3ccnc(C4CC4)c3)nc21)c1cccc(C(F)(F)F)c1` [Compound I-238a, (S)-N-(2-(2-Cyclopropylpyridin-4-yl)-4,5,6,7-tetrahydrobenzo[d]oxazol-4-yl)-3-(trifluoromethyl)benzamide], < 250 nM. `O=C(N[C@H]1CCn2nc(-c3ccnc(C(F)(F)F)c3)cc21)C12CC(F)(C1)C2` [Compound I-489a, (S)-3-Fluoro-N-(2-(2-(trifluoromethyl)pyridin-4-yl)-5,6-dihydro-4H-pyrrolo[1,2-b]pyrazol-4-yl)bicyclo[1.1.1]pentane-1-carboxamide]: the IC50 was < 250 nM. On to `O=C(N[C@H]1CCCc2oc(-c3ccnc(C4CC4)c3)nc21)c1cn(C(F)(F)F)nc1C(F)F` [Compound I-505a, (S)—N-(2-(2-Cyclopropylpyridin-4-yl)-4,5,6,7-tetrahydrobenzo[d]oxazol-4-yl)-3-(difluoromethyl)-1-(trifluoromethyl)-1H-pyrazole-4-carboxamide], for which the half-maximal inhibitory concentration (IC50) is < 250 nM. The figure for `Cc1cnc(C(F)(F)F)cc1-c1cc2n(n1)CCC[C@@H]2NC(=O)c1nc(C(F)(F)F)nn1C` [Compound I-303a, (S)-1-Methyl-N-(2-(5-methyl-2-(trifluoromethyl)pyridin-4-yl)-4,5,6,7-tetrahydropyrazolo[1,5-a]pyridin-4-yl)-3-(trifluoromethyl)-1H-1,2,4-triazole-5-carboxamide] is < 250 nM; for `Cn1nc(C(F)(F)F)cc1C(=O)N[C@@H]1CCn2nc(-c3ccnc(C(F)(F)F)c3)cc21` [Compound I-123b, (R)-1-methyl-3-(trifluoromethyl)-N-(2-(2-(trifluoromethyl)pyridin-4-yl)-5,6-dihydro-4H-pyrrolo[1,2-b]pyrazol-4-yl)-1H-pyrazole-5-carboxamide] it is 250 to 500 nM; for `O=C(N[C@H]1CCc2nn(-c3ccnc(C(F)(F)F)c3)cc21)c1ccccc1` [Compound I-91a] it is < 250 nM.

Take `O=C(N[C@H]1CCCc2oc(-c3ccnc(C4CC4)c3)nc21)c1cnn(C(F)(F)F)c1C(F)(F)F` [Compound I-530a, (S)—N-(2-(2-cyclopropylpyridin-4-yl)-4,5,6,7-tetrahydrobenzo[d]oxazol-4-yl)-1,5-bis(trifluoromethyl)-1H-pyrazole-4-carboxamide]: the 50% inhibitory concentration (IC50) was < 250 nM. On to `Cn1nc(C(F)(F)F)cc1C(=O)N[C@@H]1CCCCc2nn(-c3ccnc(C(F)(F)F)c3)cc21` [Compound I-45b, (R)-1-methyl-3-(trifluoromethyl)-N-(2-(2-(trifluoromethyl)pyridin-4-yl)-2,4,5,6,7,8-hexahydrocyclohepta[c]pyrazol-4-yl)-1H-pyrazole-5-carboxamide], for which the IC50 is > 1000 nM. In the case of `Cn1nc(C(F)(F)F)nc1C(=O)N[C@H]1CCCn2nc(-c3ccnc(C(F)(F)F)c3)cc21` [Compound I-326a, (S)-1-Methyl-3-(trifluoromethyl)-N-(2-(2-(trifluoromethyl)pyridin-4-yl)-4,5,6,7-tetrahydropyrazolo[1,5-a]pyridin-4-yl)-1H-1,2,4-triazole-5-carboxamide] it was < 250 nM; in that of `O=C(N[C@@H]1CCCc2nnc(-c3ccnc(C(F)(F)F)c3)cc21)c1cc(F)cc(F)c1` [Compound I-453b], > 1000 nM. In the case of `Cn1nc(C(F)(F)F)cc1C(=O)N[C@H]1CCCn2nc(-c3cnc(C(F)(F)F)o3)cc21` [Compound I-317a, (S)-1-Methyl-3-(trifluoromethyl)-N-(2-(2-(trifluoromethyl)oxazol-5-yl)-4,5,6,7-tetrahydropyrazolo[1,5-a]pyridin-4-yl)-1H-pyrazole-5-carboxamide] it was 500 to 1000 nM. As to `Cn1nc(C(F)(F)F)cc1C(=O)N[C@@H]1CCCn2nc(-c3ccnc(C(F)(F)F)c3)cc21` [Compound I-42b, (R)-1-Methyl-3-(trifluoromethyl)-N-(2-(2-(trifluoromethyl)pyridin-4-yl)-4,5,6,7-tetrahydropyrazolo[1,5-a]pyridin-4-yl)-1H-pyrazole-5-carboxamide], the IC50 was > 1000 nM.
